What is called half-life is the time needed for the level to fall by half in the phase considered. Usually clearance stands for the volume of plasma or blood freed of the substance per unit of time. What is called bioavailability is the share of a dose that reaches the circulation, judged against a reference dose that is usually intravenous.

The values below come from ChEMBL document CHEMBL1777801, “3-Oxo-2-piperazinyl acetamides as potent bradykinin B1 receptor antagonists for the treatment of pain and inflammation” (Bioorg Med Chem Lett, 2011).

A short description of series [1]: Half life in Sprague-Dawley rat at 1 mg/kg, iv administered as bolus dose. Particulars: in vivo. Set-up: dose 1 mg/kg, route intravenous. It counts as ADME, organism-based.
The nature of series [2]: Clearance in rhesus monkey at 1 mg/kg, iv. Format: ADME, organism-based, Macaca mulatta. Set-up: dose 1 mg/kg, route intravenous. As to conditions: in vivo.
Series [3] in a line: Half life in mouse at 1 mg/kg, iv. It counts as ADME, organism-based. Set-up: dose 1 mg/kg, route intravenous. As to conditions: in vivo.
The nature of series [4]: Clearance in mouse at 1 mg/kg, iv. Format: ADME, organism-based. Set-up: dose 1 mg/kg, route intravenous. Particulars: in vivo.
The nature of series [5]: Volume of distribution at steady state in rabbit at 1 mg/kg, iv. Format: ADME, organism-based, Oryctolagus cuniculus. Set-up: dose 1 mg/kg, route intravenous. Particulars: in vivo, read-out: Vdss.
A short description of series [6]: Clearance in cynomolgus monkey at 1 mg/kg, iv. Format: ADME, organism-based, Macaca fascicularis. Set-up: dose 1 mg/kg, route intravenous. As to conditions: in vivo.
Series [7] in a line: Volume of distribution at steady state in mouse at 1 mg/kg, iv. As to conditions: in vivo, read-out: Vdss. More on the design: dose 1 mg/kg, route intravenous. Format: ADME, organism-based.
The nature of series [8]: in vivo. As to conditions: Sprague-Dawley, rat, po, 10 mg/kg.
Series [9] can be described thus: Half life in rabbit at 1 mg/kg, iv. It counts as ADME, organism-based, Oryctolagus cuniculus. More on the design: dose 1 mg/kg, route intravenous. Particulars: in vivo.
Series [10] in a line: Oral bioavailability in mouse at 10 mg/kg. Format: ADME, organism-based. Particulars: in vivo.
Series [11] in a line: Oral bioavailability in cynomolgus monkey at 5 mg/kg. It counts as ADME, organism-based, Macaca fascicularis. As to conditions: in vivo.
Series [12] is described as follows: Half life in cynomolgus monkey at 1 mg/kg, iv. It counts as ADME, organism-based, Macaca fascicularis. Particulars: in vivo. Set-up: dose 1 mg/kg, route intravenous.
Series [13] is described as follows: Oral bioavailability in rhesus monkey at 5 mg/kg. As to conditions: in vivo. It counts as ADME, organism-based, Macaca mulatta.
A short description of series [14]: Half life in dog at 1 mg/kg, iv. It counts as ADME, organism-based, Canis lupus familiaris. More on the design: dose 1 mg/kg, route intravenous. Particulars: in vivo.
Series [15] is described as follows: Volume of distribution at steady state in cynomolgus monkey at 1 mg/kg, iv. As to conditions: in vivo, read-out: Vdss. Set-up: dose 1 mg/kg, route intravenous. It counts as ADME, organism-based, Macaca fascicularis.
Series [16] in a line: Volume of distribution at steady state in dog at 1 mg/kg, iv. Format: ADME, organism-based, Canis lupus familiaris. Set-up: dose 1 mg/kg, route intravenous. As to conditions: in vivo, read-out: Vdss.
The nature of series [17]: Volume of distribution at steady state in rhesus monkey at 1 mg/kg, iv. As to conditions: in vivo, read-out: Vdss. Format: ADME, organism-based, Macaca mulatta. Set-up: dose 1 mg/kg, route intravenous.
Series [18] is described as follows: Clearance in dog at 1 mg/kg, iv. It counts as ADME, organism-based, Canis lupus familiaris. Set-up: dose 1 mg/kg, route intravenous. As to conditions: in vivo.
Series [19] in a line: Half life in rhesus monkey at 1 mg/kg, iv. Format: ADME, organism-based, Macaca mulatta. Set-up: dose 1 mg/kg, route intravenous. Particulars: in vivo.
The nature of series [20]: Oral bioavailability in rabbit at 5 mg/kg. It counts as ADME, organism-based, Oryctolagus cuniculus. As to conditions: in vivo.
Series [21] can be described thus: in vivo. Particulars: Sprague-Dawley, rat, iv, 1 mg/kg.
Series [22] can be described thus: in vivo. Particulars: Sprague-Dawley, rat, iv, 1 mg/kg. This is another data set of the same source.
Series [23] can be described thus: Oral bioavailability in dog at 3 mg/kg. Format: ADME, organism-based, Canis lupus familiaris. Particulars: in vivo.
Series [24] in a line: Clearance in rabbit at 1 mg/kg, iv. Set-up: dose 1 mg/kg, route intravenous. Particulars: in vivo. Format: ADME, organism-based, Oryctolagus cuniculus.

Take `Cc1ccc(S(=O)(=O)N2CCNC(=O)[C@H]2CC(=O)N[C@@H]2CCCc3cc(CN4CCCCC4)ccc32)cc1`: the half-life in series [1] was 4.8 h; in series [3] it was 1.4 h; in [9], 2.4 h; in [12], 5.6 h; in series [14], 4.6 h; in series [19], 3.2 h. For the same compound, the clearance in series [2] is 30 mL/min/kg; in series [4] it was 133 mL/min/kg; in series [6], 10 mL/min/kg; in series [18] it was 63.3 mL/min/kg; in the series “in vivo [22]”, 123 mL/min/kg; in series [24], 53.3 mL/min/kg. Moreover, the Vd was found to be 6.4 L/kg in series [5]; 6 L/kg in [7]; 1.6 L/kg in series [15]; 16.2 L/kg in series [16]; 5.9 L/kg in [17]; 9.3 L/kg in the series “in vivo [21]”. Further, the bioavailability in “in vivo [8]” was 6%; in series [10] it was 6%; in series [11], 17%; in series [13], 23%; in series [20], 5%; in [23], 24%.
In turn, `O=C(C[C@@H]1C(=O)NCCN1S(=O)(=O)c1ccccc1)N[C@@H]1CCCc2cc(CN3CCCCC3)ccc21` registered a Vd in “in vivo [21]” of 9.9 L/kg. The compound also had a clearance in the series “in vivo [22]” of 90 mL/min/kg.
Consider `O=C(C[C@@H]1C(=O)NCCN1S(=O)(=O)c1ccc(Cl)cc1)N[C@@H]1CCCc2cc(CN3CCCCC3)ccc21`, for which the bioavailability in “in vivo [8]” amounted to 19%. Further, the Vd in the series “in vivo [21]” was determined as 11.9 L/kg. This compound also gave a clearance in the series “in vivo [22]” of 112 mL/min/kg.
`Cc1ccc(S(=O)(=O)N2CCNC(=O)[C@H]2CC(=O)N[C@@H]2CCCc3cc(CNC(C)(C)C)ccc32)cc1` showed a bioavailability in the series “in vivo [8]” of 0.3%. Moreover, in “in vivo [21]”, the Vd stood at 8.34 L/kg. The compound also gave a clearance in the series “in vivo [22]” of 56.7 mL/min/kg.
In the series “in vivo [8]”, `Cc1ccc(S(=O)(=O)N2CCNC(=O)[C@H]2CC(=O)N[C@@H]2CCCc3cc(CNCC(C)(C)C)ccc32)cc1` gave a bioavailability of 16%. In the series “in vivo [21]”, this compound returned a Vd of 3.4 L/kg. The compound further gave a clearance in the series “in vivo [22]” of 30 mL/min/kg.
